Source: US10174008B2, “Synthesis of cyclopropyl indoles and cyclohepta[B]indoles, pharmaceutical compositions containing them and method of using them” (WISCONSIN ALUMNI RESEARCH FOUNDATION, priority 2014, dated 2019)
Read-outs that look alike come from different tables or passages of the source.

Columns and labels:
IL5 = IL5 inhibition; type: cell-based
IL17 secretion = IL17 secretion from human PBMCs stimulated with IL23, anti-CD3 and anti-CD28; type: cell-based; conditions: PBMC
Source text: The present compounds are thus useful to treat autoimmune disorders such as (but not limited to) arthritis, multiple sclerosis, psoriasis, and inflammatory bowel disease. The IL-17 pathway plays an essential pathological role in many autoimmune diseases including arthritis, multiple sclerosis, psoriasis, and inflammatory bowel disease. IL-17 is produced and secreted by at least two classes of lymphocytes, δγ and CD4+ T cells (Th17). The orphan nuclear receptor RORg is required for the differentiation of Th17 cells where over-expression in human and rodent T cells induces transcripts found in Th17 cells encoding key cytokines for the IL23 receptor and chemokines for the CCR6 receptor. In addition to RORg, recent global analysis of transcription factors has highlighted the molecular complexity of the Th17 differentiation program.
Active compounds are identified by measuring their ability to inhibitor IL17 secretion from human peripheral blood mononuclear cells (PBMCs) following stimulation of memory T cells by IL23, anti-CD3, and anti-CD28. See M. Ciofani, et al (2012) “A validated regulatory network for Th17 cell specification.” Cell, 151:289-303.

protein secretion = test: Non-selective inhibition at protein secretion; type: cell-based; conditions: Homo sapiens; HepG2 cells; read-out: IC50-C non-selective inhibition at protein secretion
Source text: (§1) PCSK9 expression is actively regulated at transcription levels. Statins are known to stimulate PCSK9 transcription which in turn curbs the efficacy of statins in LDL lowering in humans. […] A number of primary and secondary assays to measure PCSK9 secretion/modulation in response to putative active agents are known. Primary assays: PCSK9 Secretion HepG2 SP/CRC (% Inhibition/IC50); PCSK9 Secretion Cell Health HepG2 SP/CRC (% Inhibition/IC50); and Metabolic Luciferase Reporter Assay CRC (IC50). Secondary assays: PCSK9 ELISA HepG2 CRC (IC50); ApoA-1 ELISA HepG2 CRC (IC50), and Profiling Biochemical Activity—Kinase Panel SP/CRC (% Efficacy/IC50). All of these assays are publicly accessible via Lilly's Open Innovation Drug Discovery program (as well as other sources).

PCSK9 secretion = PCSK9 secretion in HepG2 cells; type: cell-based; conditions: Homo sapiens
Source text: as §1

[1] = Cytotoxicity (PCSK9 Secretion Cell Health HepG2); type: cell-based; conditions: human, HepG2 cells; read-out: IC50-B cytotoxicity
Source text: as §1

GLP-1 secretion = GLP-1 secretion (ELISA); type: cell-based
Source text: Similarly, the present indole compounds also modify the activity of glucagon-like peptide 1 (GLP-1), which plays a critical role in hyperglycemia and diabetes in humans. Glucagon-like peptide 1 (GLP-1) is derived from transcription of the proglucagon gene followed by post-translational modifications of proglucagon to the following biologically active peptides: GLP-1 (7-37) and GLP-1 (7-36)-NH2. GLP-1 secretion by ileal L cells is dependent on the presence of nutrients in the lumen of the small intestine. GLP-1 is a potent anti-hyperglycemic hormone that induces glucose-dependent insulin secretion and suppresses glucagon secretion.
GLP-1 secretion is measured using an ELISA designed to detect the appropriate forms of GLP-1 secreted from these cells. See, for example, Gareth E. Kim and Patricia L. Brubaker (December 2006) “Glucagon-Like Peptide 1 Secretion by the L-Cell,” Diabetes: 55 (supplement 2).

[2] = HepG2 cells, read-out: IC50-A inhibition of PCSK9 secretion

Row | SMILES | IC50 (IL5) | IC50 (IL17 secretion) | IC50 (protein secretion) | IC50 (PCSK9 secretion; HepG2, read-out: PCSK9, IC50) | IC50 (PCSK9 secretion; [2]) | IC50 [1] | melting point | EC50 (GLP-1 secretion)
1 | COc1ccc(C2C[C@@H]2c2c(C)c3ccccc3n2S(=O)(=O)c2ccc(C)cc2)cc1 (stereo in doubt) [8a, 2-(2-(4-methoxyphenyl)cyclopropyl)-3-methyl-1-tosyl-1H-indole] | > 30 µM | 10 µM | > 50 µM | 1.8 µM | 1.8 µM | > 50 µM | 155 to 156 °C | –
2 | Cc1ccc(S(=O)(=O)n2c([C@@H]3CC3c3ccccc3)c(C)c3ccccc32)cc1 (stereo in doubt) [8b, 3-methyl-2-(2-phenylcyclopropyl)-1-tosyl-1H-indole] | – | – | – | 21 µM | 21 µM | – | 156 to 157 °C | –
3 | Cc1ccc(S(=O)(=O)n2c(C3C[C@]3(CO)c3ccccc3)c(C)c3ccccc32)cc1 (stereo in doubt) [8i, (2-(3-methyl-1-tosyl-1H-indol-2-yl)-1-phenylcyclopropyl)methanol] | – | – | – | – | – | – | 57 to 58 °C | 7.3 µM
4 | Cc1ccc(S(=O)(=O)n2c([C@H]3C[C@H]3c3ccc4c(c3)OCO4)c(C)c3ccccc32)cc1 [8f, 2-(2-(benzo[d][1,3]dioxol-5-yl)cyclopropyl)-3-methyl-1-tosyl-1H-indole] | > 30 µM | 7.3 µM | > 50 µM | 9.9 µM | 9.9 µM | > 50 µM | 106 to 107 °C | –
5 | CCc1c(C2CC2c2ccc(OC)cc2)n(S(=O)(=O)c2ccc(C)cc2)c2ccccc12 (stereo not shown) [10g, 3-ethyl-2-(2-(4-methoxyphenyl)cyclopropyl)-1-tosyl-1H-indole] | – | – | > 50 µM | 0.7 µM | 0.7 µM | > 50 µM | – | –
6 | COc1ccc(C2C=CCCc3c2c2ccccc2n3S(=O)(=O)c2ccc(C)cc2)cc1 (stereo not shown) [compound 14, (Z)-10-(4-methoxyphenyl)-5-tosyl-5,6,7,10-tetrahydrocyclohepta[b]indole] | – | – | – | – | – | – | 75 to 76 °C | 28.4 µM
